Measurements from publication PMC11817140, “Characterization of Novel Plantaricin-Derived Antiviral Peptides Against Flaviviruses” (International Journal of Molecular Sciences, 2025).
“And” between values parts separate entries of the source, which are not always exact repeats. Equal entries are not always repeated.

System: West Nile virus Kunjin strain (KUNV)
Test: Plaque reduction assay in Vero cells after pre-incubating virus with peptide
Assay type: cell-based
Conditions: 10 µM peptide, KUNV 1 × 10^5 PFU exposed in DMEM for 1 h at room temperature, then Vero cells 1 h, overlay, 3 days, mean with SD of three independent experiments
Experimental: The antiviral activity of the synthesized peptides was evaluated using plaque reduction assays in Vero cells against West Nile virus Kunjin strain (KUNV, accession number AY274504). Vero cells (Vero E6, ATCC, CRL-1586, Manassas, VA, USA) were maintained in Dulbecco’s Modified Eagle Medium (DMEM, Thermo Fisher Scientific, Gibco, Göteborg, Sweden), supplemented with 10% fetal bovine serum (FBS, Thermo Fisher Scientific, Gibco, Göteborg, Sweden) and antibiotics (PEST, Thermo Fisher Scientific, Gibco, Göteborg, Sweden). For the antiviral assays, Vero cells were seeded in 24-well plates and allowed to reach confluency. The virus suspension (1 × 10^5 PFU) was pre-incubated with the peptides at 10 µM concentration or lower (in the combination experiment) for 1 h at room temperature. The peptide–virus mixtures were then added to the Vero cell monolayers and incubated for 1 h at 37 °C. Following incubation, the inoculum was removed, and cells were overlaid with Avicel 2.4% overlay media (FMC, Philadelphia, PA, USA). Plates were incubated for 3 days at 37 °C in a CO2 incubator. Post-incubation, cells were fixed with 100% methanol and stained with 1% crystal violet to visualize and count viral plaques. The reduction in plaque numbers compared to control wells (virus without peptide) was used to quantify antiviral activity.

Substance	KUNV (% Reduction)	KUNV (% Reduction) (listed as PLNC8 α1-15)	KUNV (% Reduction) (listed as PLNC8 β1-20)
β4-17: truncated peptide derived from PLNC8 β (TSVYTLGIKILWSA)	56 ± 32%	–	–
β14-34: truncated peptide derived from PLNC8 β (LWSAYKHRKTIEKSFNKGFYH)	5 ± 0.2%	–	–
DLTTKLWSSWGYYLGKKARWNLKHPYVQF [PLNC8 α, full-length α peptide (29 amino acids) of two-peptide bacteriocin plantaricin NC8 αβ, reference compound]	~ 35% and 35 ± 2%	–	–
RRSRKNGIGYAIGYAFGAVERAVLGGSRDYNK [PlnK, full-length peptide K of two-peptide plantaricin JK, reference compound]	18 ± 9%	–	–
β28-34: truncated peptide derived from PLNC8 β (FNKGFYH)	11 ± 15%	–	–
β7-20: truncated peptide derived from PLNC8 β (YTLGIKILWSAYKH)	65 ± 20%	–	–
SVPTSVYTLGIKILWSARKFGKVIEKSFNKGFYH [β16, modified peptide derived from PLNC8 β]	84 ± 8%	–	–
α1-22: truncated peptide derived from PLNC8 α (DLTTKLWSSWGYYLGKKARWNL)	28 ± 2%	–	–
GAWKNFWSSLRKGFYDGEAGRAIRR [PlnJ, full-length peptide J of two-peptide plantaricin JK, reference compound]	30 ± 8%	–	–
SVPTSVYTLGIKILWSAYKHRKTIEKSFNKGFYH [PLNC8 β, full-length β peptide (34 residues) of two-peptide bacteriocin plantaricin NC8 αβ, reference compound]	70 ± 12%	–	–
β7-34: truncated peptide derived from PLNC8 β (YTLGIKILWSAYKHRKTIEKSFNKGFYH)	52 ± 27%	–	–
α1-15: truncated peptide derived from PLNC8 α (DLTTKLWSSWGYYLG)	91 ± 2%	over 90%	–
β1-20: truncated peptide derived from PLNC8 β (SVPTSVYTLGIKILWSAYKH)	92 ± 4%	–	over 90%
FNRGGYNFGKSVRHVVDAIGSVAGIRGILKSIR [PlnE, full-length peptide E of two-peptide plantaricin EF, reference compound]	24 ± 6%	–	–
β14-20: truncated peptide derived from PLNC8 β (LWSAYKH)	3 ± 4%	–	–
α9-22: truncated peptide derived from PLNC8 α (SWGYYLGKKARWNL)	7 ± 7%	–	–
β10-17: truncated peptide derived from PLNC8 β (GIKILWSA)	0 ± 0%	–	–

Substance	KUNV (% Reduction)	KUNV (% Reduction) (listed as PLNC8 α1-15)	KUNV (% Reduction) (listed as PLNC8 β1-20)
SVPTSVYLLGIKILWSARKFGKVIEKSFNKGFYH [β17, modified peptide derived from PLNC8 β]	14 ± 12%	–	–
AYSLQMGATAIKQVKKLFKKWGW [PlnA, full-length plantaricin A, peptide pheromone of Lactobacillus plantarum C11, reference compound]	27 ± 9%	–	–
SVPTSVYTLGQKILRSARKFGKTIEKSFNKGFYH [β13, modified peptide derived from PLNC8 β]	8 ± 11%	–	–
α9-29: truncated peptide derived from PLNC8 α (SWGYYLGKKARWNLKHPYVQF)	10 ± 6%	–	–
β1-13: truncated peptide derived from PLNC8 β (SVPTSVYTLGIKI)	5 ± 7%	–	–
β7-13: truncated peptide derived from PLNC8 β (YTLGIKI)	8 ± 4%	–	–
α1-8: truncated peptide derived from PLNC8 α (DLTTKLWS)	20 ± 18%	–	–
SVPTSVYLLGIKILWKARKFGKVIEKSFNKGFYH [β18, modified peptide derived from PLNC8 β]	12 ± 1%	–	–
SVPTSVYTLGIKILRSARKFGKVIEKSFNKGFYH [β15, modified peptide derived from PLNC8 β]	9 ± 13%	–	–
α16-22: truncated peptide derived from PLNC8 α (KKARWNL)	3 ± 6%	–	–
VFHAYSARGVRNNYKSAVGPADWVISAVRGFIHG [PlnF, full-length peptide F of two-peptide plantaricin EF, reference compound]	24 ± 6%	–	–
SVPTSVYTLGQKILRSARKFGKDIEKSFNKGFYH [β14, modified peptide derived from PLNC8 β]	6 ± 8%	–	–
β21-34: truncated peptide derived from PLNC8 β (RKTIEKSFNKGFYH)	0 ± 0%	–	–
α9-15: truncated peptide derived from PLNC8 α (SWGYYLG)	16 ± 7%	–	–
β1-6: truncated peptide derived from PLNC8 β (SVPTSV)	21 ± 22%	–	–
α23-29: truncated peptide derived from PLNC8 α (KHPYVQF)	10 ± 4%	–	–
α16-29: truncated peptide derived from PLNC8 α (KKARWNLKHPYVQF)	2 ± 0%	–	–
